Source: article PMC5867518 (Cell metabolism, 2015)

Tests used:
Test in all cases: PI3-kinase
Assay type in all cases: biochemical
[1] = biological target: PI3Kδ (p110δ/p85α) (Homo sapiens, UniProt O00329)
[2] = biological target: PI3Kγ (p110γ) (Homo sapiens, UniProt P48736)
[3] = biological target: PI3Kα (p110α/p85α) (Homo sapiens, UniProt P42336)
Chain of PI3Kα (p110α/p85α) (P42336 whole entry): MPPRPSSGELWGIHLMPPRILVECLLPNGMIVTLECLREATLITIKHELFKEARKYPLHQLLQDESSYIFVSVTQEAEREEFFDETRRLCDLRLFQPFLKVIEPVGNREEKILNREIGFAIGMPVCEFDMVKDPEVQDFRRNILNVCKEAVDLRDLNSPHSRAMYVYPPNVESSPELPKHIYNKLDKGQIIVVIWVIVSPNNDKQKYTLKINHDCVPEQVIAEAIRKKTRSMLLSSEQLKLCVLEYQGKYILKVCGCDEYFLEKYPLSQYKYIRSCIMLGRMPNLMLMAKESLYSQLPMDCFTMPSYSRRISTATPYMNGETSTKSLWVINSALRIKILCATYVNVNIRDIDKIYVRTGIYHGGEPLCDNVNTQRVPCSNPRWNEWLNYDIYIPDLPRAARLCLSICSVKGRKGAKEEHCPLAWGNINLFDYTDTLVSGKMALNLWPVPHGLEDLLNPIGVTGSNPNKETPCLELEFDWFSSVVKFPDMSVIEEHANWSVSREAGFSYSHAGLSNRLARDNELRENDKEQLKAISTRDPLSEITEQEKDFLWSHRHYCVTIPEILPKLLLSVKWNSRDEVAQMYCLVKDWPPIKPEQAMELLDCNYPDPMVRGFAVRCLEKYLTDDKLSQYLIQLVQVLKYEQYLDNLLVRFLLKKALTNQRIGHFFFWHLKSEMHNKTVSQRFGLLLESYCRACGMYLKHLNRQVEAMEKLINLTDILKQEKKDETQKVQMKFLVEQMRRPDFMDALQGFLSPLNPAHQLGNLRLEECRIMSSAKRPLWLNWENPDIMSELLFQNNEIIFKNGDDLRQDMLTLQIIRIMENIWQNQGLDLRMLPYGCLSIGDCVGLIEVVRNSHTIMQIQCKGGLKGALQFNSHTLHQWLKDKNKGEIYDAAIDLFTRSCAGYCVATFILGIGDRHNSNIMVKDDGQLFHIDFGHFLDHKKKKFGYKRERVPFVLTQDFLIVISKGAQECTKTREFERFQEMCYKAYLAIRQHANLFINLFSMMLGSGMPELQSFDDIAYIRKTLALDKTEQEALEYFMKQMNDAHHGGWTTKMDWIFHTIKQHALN
Chain of PI3Kα (p110α/p85α) (P27986 2-724 partner): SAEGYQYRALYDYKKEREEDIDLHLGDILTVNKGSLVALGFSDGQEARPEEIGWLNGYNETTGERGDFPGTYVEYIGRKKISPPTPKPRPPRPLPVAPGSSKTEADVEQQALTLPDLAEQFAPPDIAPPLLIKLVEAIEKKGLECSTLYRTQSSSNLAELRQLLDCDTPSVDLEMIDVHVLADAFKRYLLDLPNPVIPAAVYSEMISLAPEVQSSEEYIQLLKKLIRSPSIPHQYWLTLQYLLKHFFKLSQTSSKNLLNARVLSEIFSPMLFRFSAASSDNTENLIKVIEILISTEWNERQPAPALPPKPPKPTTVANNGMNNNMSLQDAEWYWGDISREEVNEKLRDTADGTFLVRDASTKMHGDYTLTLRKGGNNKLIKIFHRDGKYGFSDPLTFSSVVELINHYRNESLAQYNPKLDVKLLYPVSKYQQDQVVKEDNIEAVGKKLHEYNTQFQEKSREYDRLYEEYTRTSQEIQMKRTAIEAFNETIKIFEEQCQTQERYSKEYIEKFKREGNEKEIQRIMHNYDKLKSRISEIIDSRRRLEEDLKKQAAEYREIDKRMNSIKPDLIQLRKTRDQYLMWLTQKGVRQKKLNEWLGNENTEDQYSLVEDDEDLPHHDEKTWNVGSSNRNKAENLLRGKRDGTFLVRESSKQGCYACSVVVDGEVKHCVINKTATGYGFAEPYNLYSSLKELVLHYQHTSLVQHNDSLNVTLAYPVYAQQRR

Chain of PI3Kγ (p110γ) (P48736 whole entry): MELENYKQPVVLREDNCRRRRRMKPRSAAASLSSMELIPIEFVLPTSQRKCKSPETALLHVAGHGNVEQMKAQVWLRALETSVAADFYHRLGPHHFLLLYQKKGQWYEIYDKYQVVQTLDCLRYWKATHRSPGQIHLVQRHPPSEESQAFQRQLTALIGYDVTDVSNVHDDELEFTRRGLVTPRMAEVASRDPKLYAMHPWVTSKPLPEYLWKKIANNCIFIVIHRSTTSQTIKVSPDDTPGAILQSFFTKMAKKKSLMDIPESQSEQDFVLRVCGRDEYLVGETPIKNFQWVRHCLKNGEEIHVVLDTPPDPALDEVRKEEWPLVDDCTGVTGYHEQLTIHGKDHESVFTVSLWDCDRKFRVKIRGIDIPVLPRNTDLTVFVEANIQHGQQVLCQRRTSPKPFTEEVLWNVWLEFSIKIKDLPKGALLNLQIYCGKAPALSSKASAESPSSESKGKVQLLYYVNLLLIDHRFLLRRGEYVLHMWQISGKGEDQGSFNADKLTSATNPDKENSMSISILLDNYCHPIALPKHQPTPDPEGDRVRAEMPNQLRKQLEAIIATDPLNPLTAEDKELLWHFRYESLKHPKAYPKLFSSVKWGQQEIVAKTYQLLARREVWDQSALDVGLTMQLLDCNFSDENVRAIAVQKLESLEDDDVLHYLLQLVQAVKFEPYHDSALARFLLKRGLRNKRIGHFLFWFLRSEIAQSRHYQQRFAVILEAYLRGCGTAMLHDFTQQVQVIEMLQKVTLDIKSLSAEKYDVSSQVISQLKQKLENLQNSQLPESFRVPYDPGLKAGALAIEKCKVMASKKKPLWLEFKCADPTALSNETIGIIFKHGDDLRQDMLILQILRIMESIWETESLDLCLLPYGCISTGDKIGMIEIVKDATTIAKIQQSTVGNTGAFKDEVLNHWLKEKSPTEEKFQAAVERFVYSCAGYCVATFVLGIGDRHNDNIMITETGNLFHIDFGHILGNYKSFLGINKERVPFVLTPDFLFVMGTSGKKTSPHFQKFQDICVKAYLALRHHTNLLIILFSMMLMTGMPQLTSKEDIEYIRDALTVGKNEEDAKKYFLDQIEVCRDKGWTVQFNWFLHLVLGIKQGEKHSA
Chain of PI3Kδ (p110δ/p85α) (O00329 whole entry): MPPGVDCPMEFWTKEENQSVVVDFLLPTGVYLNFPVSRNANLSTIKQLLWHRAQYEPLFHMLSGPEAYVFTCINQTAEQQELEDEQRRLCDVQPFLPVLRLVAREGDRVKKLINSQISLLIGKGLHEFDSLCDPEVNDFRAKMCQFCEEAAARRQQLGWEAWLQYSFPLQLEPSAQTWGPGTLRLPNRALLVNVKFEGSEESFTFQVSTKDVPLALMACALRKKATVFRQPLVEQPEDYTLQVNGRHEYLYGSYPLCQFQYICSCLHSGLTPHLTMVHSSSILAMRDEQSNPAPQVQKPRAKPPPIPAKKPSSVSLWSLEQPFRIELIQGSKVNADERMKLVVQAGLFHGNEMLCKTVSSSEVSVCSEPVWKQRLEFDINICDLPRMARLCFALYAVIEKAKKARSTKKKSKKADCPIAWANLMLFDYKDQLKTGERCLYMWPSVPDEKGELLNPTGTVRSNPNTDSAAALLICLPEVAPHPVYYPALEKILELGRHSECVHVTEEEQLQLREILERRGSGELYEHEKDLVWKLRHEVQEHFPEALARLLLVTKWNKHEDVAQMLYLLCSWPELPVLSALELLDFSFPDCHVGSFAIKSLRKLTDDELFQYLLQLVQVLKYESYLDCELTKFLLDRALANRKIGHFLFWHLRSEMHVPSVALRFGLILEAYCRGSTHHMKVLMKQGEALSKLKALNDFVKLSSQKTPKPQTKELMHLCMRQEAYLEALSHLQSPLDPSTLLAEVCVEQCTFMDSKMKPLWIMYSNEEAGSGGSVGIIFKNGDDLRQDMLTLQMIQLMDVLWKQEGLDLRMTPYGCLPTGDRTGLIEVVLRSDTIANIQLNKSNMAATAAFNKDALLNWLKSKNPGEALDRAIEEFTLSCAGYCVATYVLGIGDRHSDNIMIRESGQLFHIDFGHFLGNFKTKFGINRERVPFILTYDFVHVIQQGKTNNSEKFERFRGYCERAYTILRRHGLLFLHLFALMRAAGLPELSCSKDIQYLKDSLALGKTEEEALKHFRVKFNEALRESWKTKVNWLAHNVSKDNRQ
Chain of PI3Kδ (p110δ/p85α) (P27986 2-724 partner): as the sequence (P27986 2-724 partner) above

IC50 [1]: 2.5 nM
IC50 [2]: 44 nM
IC50 [3]: 2.4 nM
Substance: CNIO-PI3Ki
